Values quoted from earlier work as cited in patent publication US12115173B2 (Elba Laboratories, priority 2021, dated 2024).

- pKa: about 3.8
SMILES: O=C(O)CO [glycolic acid]
